The term IC50 denotes the concentration that inhibits the measured activity by half. A high value points to weaker potency.

Here are results for 1 compound from publication PMC10817170, “Effect of an NHE3 inhibitor in combination with an NPT2b inhibitor on gastrointestinal phosphate absorption in Rodent models” (PLOS ONE, 2024).

The target of the assay is T1, Human NHE3 (Homo sapiens, UniProt P48764).
T1 construct: myc
T1 sequence (P48764 26-834): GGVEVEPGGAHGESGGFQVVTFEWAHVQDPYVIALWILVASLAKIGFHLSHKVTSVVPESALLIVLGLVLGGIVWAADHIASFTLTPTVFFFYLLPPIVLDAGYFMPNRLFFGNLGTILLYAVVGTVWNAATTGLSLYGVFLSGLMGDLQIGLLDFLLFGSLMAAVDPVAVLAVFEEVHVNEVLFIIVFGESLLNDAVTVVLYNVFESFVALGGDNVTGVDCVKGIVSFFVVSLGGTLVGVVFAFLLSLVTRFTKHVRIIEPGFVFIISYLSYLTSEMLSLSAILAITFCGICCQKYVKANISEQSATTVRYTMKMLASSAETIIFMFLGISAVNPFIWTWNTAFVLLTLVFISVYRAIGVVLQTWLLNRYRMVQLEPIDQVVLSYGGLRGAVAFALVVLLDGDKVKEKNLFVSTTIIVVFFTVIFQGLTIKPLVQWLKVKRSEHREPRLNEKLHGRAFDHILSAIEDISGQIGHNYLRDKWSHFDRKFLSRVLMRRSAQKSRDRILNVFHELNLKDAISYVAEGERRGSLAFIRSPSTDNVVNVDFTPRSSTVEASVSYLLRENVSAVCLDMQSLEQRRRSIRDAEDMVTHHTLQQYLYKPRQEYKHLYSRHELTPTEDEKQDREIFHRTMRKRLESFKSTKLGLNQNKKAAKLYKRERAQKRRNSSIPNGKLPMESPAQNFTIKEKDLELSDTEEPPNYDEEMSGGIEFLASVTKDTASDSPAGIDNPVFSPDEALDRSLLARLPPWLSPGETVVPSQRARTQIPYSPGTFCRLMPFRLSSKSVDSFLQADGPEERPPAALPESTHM
The experiment in a line: NHE3 activity assay (intracellular pH recovery, BCECF-AM) in human NHE3 over-expressing NHD C8 cells. The class given is cell-based. The source says:
Sodium hydrogen exchanger activity specific to NHE3 was achieved by overexpressing human NHE3 in an endogenously NHE-deficient cell line generated by chemical-induced mutagenesis. After the mutagenesis, NHE-deficient cells were selected by loading lithium into the cells and then exposing them to an acidic extracellular environment. Under these conditions, NHE exchanges intracellular lithium for extracellular protons, thus only NHE-deficient cells can avoid a toxic intracellular acidosis and survive. Dede cells (ATCC ccl-39), grown to 50% confluence in McCoy’s 5A medium (GE Healthcare) with 10% FBS and antibiotic/antimycotic solution (GE Healthcare) in a T75 flask, were treated with 500 μg/mL of EMS (ethyl methanesulfonate, Sigma-Aldrich) in medium for 20 hours for mutagenesis and washed twice with phosphate buffered saline (PBS). The cells were then trypsinized, plated in two T175 flasks and cultured in fresh medium without EMS for 2 days. […] The intracellular pH change is then measured by an intracellular pH-sensitive dye, 2’,7’-Bis-(2-carboxyethyl)-5(and-6)-carboxyfluorescein, acetoxymethyl ester (BCECF-AM, ThermoFisher Scientific) upon reintroduction of sodium. […] The plate was immediately read for fluorescence at the excitation wavelength of 505 nm and the emission wavelength of 550 nm using a kinetic method by Molecular Device, SpectraMax i3. […]

Several values for one entry are separate records, joined by “and”; a condition that tells them apart may be missing. Equal values may be shown once.

In the case of `CN1Cc2c(Cl)cc(Cl)cc2[C@H](c2cccc(S(=O)(=O)NCCOCCOCCN/C(=N\C(N)=O)NCCCCN/C(=N/C(N)=O)NCCOCCOCCNS(=O)(=O)c3cccc([C@@H]4CN(C)Cc5c(Cl)cc(Cl)cc54)c3)c2)C1.Cl.Cl` [LY3304000, (Z)-[[4-[[(Z)-N’-carbamoyl-N-[2-[2-[2-[[3-[(4S)-6,8-dichloro-2-methyl-3,4-dihydro-1H-isoquinolin-4-yl]phenyl]sulfonylamino]ethoxy]ethoxy]ethyl]carbamimidoyl]amino]butylamino]-[2-[2-[2-[[3-[(4S)-6,8-dichloro-2-methyl-3,4-dihydro-1H-isoquinolin-4-yl]phenyl]sulfonylamino]ethoxy]ethoxy]ethylamino]methylene]urea dihydrochloride], the “slope of the concentration-response curve” value (4-parameter fit, representative curve) is recorded as 0.8. Also, the half-inhibitory concentration (IC50) (geometric mean of individual IC50, n=7) is 5.8 nM and 5.76 nM.
